Reference: patent US12180222B2, “Crystal forms of thiophene derivatives” (Tianjin Hemay Pharmaceutical Co., Ltd, priority 2018, dated 2024)

Columns and labels:
Type in all cases: physicochemical
[1] = Dissolution rate of crystal form in water; settings: about 25 mg in 900 mL water, 37° C., rotating speed 100/minute
Protocol: The crystal form III of (S)—N-[5-[l-(3-ethoxy-4-methoxyphenyl)-2-(methylsulfonyl)ethyl]-4,6-dioxo-5,6-dihydro-4H-thieno[3,4-c]pyrrole-1-yl]acetamide prepared according to the process in Example 1 was tested.
About 25 mg of crystal form III of (S)—N-[5-[1-(3-ethoxy-4-methoxyphenyl)-2-(methylsulfonyl)ethyl]-4,6-dioxo-5,6-dihydro-4H-thieno[3,4-c]pyrrole-1-yl]acetamide was added to 900 mL of water. The mixture was stirred at a rotating speed of 100/minute at 37° C. for 90 minutes. The supernatant was filtered and diluted. The concentration of the diluted solution (a mg/mL) was determined by ultraviolet spectrophotometer. The dissolution rate was calculated according to the formula 900a/25×100%.

[2] = High temperature stability (sealed oven at 40° C., liquid chromatogram and DSC)
Protocol: (§1) Crystal form III of (S)—N-[5-[1-(3-ethoxy-4-methoxyphenyl)-2-(methylsulfonyl)ethyl]-4,6-dioxo-5,6-dihydro-4H-thieno[3,4-c]pyrrole-1-yl]acetamide prepared according to the process of Example 1 was placed in a sealed oven at 40° C. After 1 month, liquid chromatogram and DSC were tested.

[3] = Accelerated stability (40° C. and Rh=75%, liquid chromatogram and DSC)
Protocol: as §1, with “stability text box” for “sealed oven”, “C. and Rh=75%.” for “C.”

[4] = Aqueous solution balance stability (crystal form by XRPD after equilibrium in water); settings: 37° C., 24 hours
Protocol: About 0.5 g of crystal form III of (S)—N-[5-[1-(3-ethoxy-4-methoxyphenyl)-2-(methylsulfonyl)ethyl]-4,6-dioxo-5,6-dihydro-4H-thieno[3,4-c]pyrrole-1-yl]acetamide was added to 40 mL of water. The mixture was stirred at 37° C. for 24 hours. The suspension was filtered. After wet solid was dried, crystal form of powders was tested with X-ray powder diffraction (XRPD).

[5] = Moisture absorption stability / hygroscopicity (RH=80%); settings: RH=80% (saturated ammonium chloride solution) until weight balanced
Protocol: Moisture absorption of crystal form III of (S)—N-[5-[1-(3-ethoxy-4-methoxyphenyl)-2-(methylsulfonyl)ethyl]-4,6-dioxo-5,6-dihydro-4H-thieno[3,4-c]pyrrole-1-yl]acetamide was studied. Crystal form III of (S)—N-[5-[1-(3-ethoxy-4-methoxyphenyl)-2-(methylsulfonyl)ethyl]-4,6-dioxo-5,6-dihydro-4H-thieno[3,4-c]pyrrole-1-yl]acetamide was placed in a drier containing saturated ammonium chloride solution (RH=80%) until weight was balanced. The crystal form was tested with XRPD.
Crystal form III of (S)—N-[5-[1-(3-ethoxy-4-methoxyphenyl)-2-(methylsulfonyl)ethyl]-4,6-dioxo-5,6-dihydro-4H-thieno[3,4-c]pyrrole-1-yl]acetamide prepared according to the process of Example 1 was tested.

- Dissolution Rate (%) ([1]; time 0 min): 0%
- Dissolution Rate (%) ([1]; time 15 min): 32.2%
- Dissolution Rate (%) ([1]; time 30 min): 46.3%
- Dissolution Rate (%) ([1]; time 45 min): 55.1%
- Dissolution Rate (%) ([1]; time 60 min): 61.8%
- Dissolution Rate (%) ([1]; time 75 min): 66.5%
- Dissolution Rate (%) ([1]; time 90 min): 71.5%
- stability under high temperature conditions ([2]; 40° C., 1 month): good stability
- Relevant Substance Contents at Day 0 (%) ([2]; Day 0, before storage at 40° C.): 0.07%
- Relevant Substance Contents after 1 Month (%) ([2]; storage 40° C., sealed oven, 1 month): 0.09%
- stability under high-temperature and high-humidity conditions ([3]; 40° C. and Rh=75%, 1 month): good stability
- Relevant Substance Contents at Day 0 (%) ([3]; Day 0, before storage at 40° C. RH = 75%): 0.07%
- Relevant Substance Contents after 1 Month (%) ([3]; storage 40° C. RH = 75%, 1 month): 0.09%
- stability in water [4]: good stability
- Moisture Absorption %) [5]: 1.17%
- Weight Increase ([5]; mAPI 0.511 g): 0.006 g
SMILES: CCOc1cc([C@@H](CS(C)(=O)=O)N2C(=O)c3csc(NC(C)=O)c3C2=O)ccc1OC [Crystal Form III, (S)—N-[5-[1-(3-ethoxy-4-methoxyphenyl)-2-(methylsulfonyl)ethyl]-4,6-dioxo-5,6-dihydro-4H-thieno[3,4-c]pyrrole-1-yl]acetamide]
